We go through one compound from patent US20090312294A1, “Method and Agent for Reducing Weight, Accelerating Lipid Catabolism, and/or Restricting Calories” (priority 2006, published 2009).

A short description of the assay: Clinical study on the action of the formulations for weight reduction. Format: in vivo, human. Conditions: body weight per patient; postmenopausal women aged 52-59; 100 mg chrysin daily after lunch for 5 days; each table row is one patient. On the procedure:
Eight women between 52 and 59 in age who were hormonally in postmenopause and despite an activity program and targeted nutrition observed no change in weight, took 100 mg of chrysin for 5 days. This dose is under the dosages of any formulations which are offered as food supplements. After a further 5 days, the patients were advised, in order to excite the conversion of peripheral […], to take additionally 100 mg of cholic acid as supplement. Intake proceeded in each case at midday after lunch.

Several values for one entry are separate records, joined by “and”; a condition that tells them apart may be missing. Equal values may be shown once.

As for `O=c1cc(-c2ccccc2)oc2cc(O)cc(O)c12` [chrysin], the “kg after 5 days of 100 mg of chrysin” value is 73.5 kg and 69.5 kg (2×) and 65 kg and 71 kg and 78 kg and 70.2 kg and 67 kg.
